Source: patent publication US8586747B2, “3,3-dimethyl tetrahydroquinoline derivatives” (Hoffmann-La Roche Inc., priority 2010, dated 2013)

System: AMP-activated protein kinase (AMPK)
Assay: ADP Quest assay for AMPK activators
Format: biochemical
Parameters: key: fold AMPK activation with vs without activator at 30 µM
Details: fold of AMPK activation to phosphorylate SAMS peptide without and with an activator at the concentration of 30 µM
How it was run: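 AMPK phosphorylation of SAMS peptide with ATP monitored kinetically at room temperature by ADP Quest fluorescence (ex 530/em 590 nm), reaction started with enzyme. Compounds tested […] in 2-fold dilutions, AMP as reference. E30 is fold activation at 30 µM activator versus none.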

Structure (SMILES) | E30
CCc1nnnn1-c1cccc(C2Nc3ccc(C(=O)O)cc3CC2(C)C)c1 (stereo not shown) [Example 148, 2-[3-(5-Ethyl-tetrazol-1-yl)-phenyl]-3,3-dimethyl-1,2,3,4-tetrahydro-quinoline-6-carboxylic acid] | 1.3
CC1(C)Cc2c(cc(Cl)cc2C(=O)NS(C)(=O)=O)NC1c1cccc(N2CCOCC2)c1 (stereo not shown) [Example 149, N-[7-Chloro-3,3-dimethyl-2-(3-morpholin-4-yl-phenyl)-1,2,3,4-tetrahydro-quinoline-5-carbonyl]-methanesulfonamide] | 1.26
CC(C)(C)c1ccc(-c2cccc(C3Nc4ccc(F)c(C(=O)O)c4CC3(C)C)c2)cc1 (stereo not shown) [Example 151, 2-(4′-tert-Butyl-biphenyl-3-yl)-6-fluoro-3,3-dimethyl-1,2,3,4-tetrahydro-quinoline-5-carboxylic acid] | 1.66
CC1(C)Cc2cc(C(=O)NS(C)(=O)=O)ccc2NC1c1cccc(N2CC(F)C2)c1 (stereo not shown) [Example 154, N-{2-[3-(3-Fluoro-azetidin-1-yl)-phenyl]-3,3-dimethyl-1,2,3,4-tetrahydro-quinoline-6-carbonyl}-methanesulfonamide] | 1.24
CC(C)NC(=O)c1ccc(-c2cccc(C3Nc4ccc(C(=O)O)cc4CC3(C)C)c2)cc1 (stereo not shown) [Example 159, 2-(4′-Isopropylcarbamoyl-biphenyl-3-yl)-3,3-dimethyl-1,2,3,4-tetrahydro-quinoline-6-carboxylic acid] | 1.31
CC(C)(C)NC(=O)c1ccc(-c2cccc(C3Nc4ccc(C(=O)NS(C)(=O)=O)cc4CC3(C)C)c2)cc1 (stereo not shown) [Example 160, 3′-(6-Methanesulfonylaminocarbonyl-3,3-dimethyl-1,2,3,4-tetrahydro-quinolin-2-yl)-biphenyl-4-carboxylic acid tert-butylamide] | 1.23
CC(C)(Nc1ccccc1C1Nc2ccc(C(=O)O)cc2CC1(C)C)C(=O)O (stereo not shown) [Example 163, 2-[2-(1-Carboxy-1-methyl-ethylamino)-phenyl]-3,3-dimethyl-1,2,3,4-tetrahydro-quinoline-6-carboxylic acid] | 3.68
CC1(C)Cc2cc(C(=O)O)ccc2NC1c1ccccc1NC1(C(=O)O)CC1 (stereo not shown) [Example 164, 2-[2-(1-Carboxy-cyclopropylamino)-phenyl]-3,3-dimethyl-1,2,3,4-tetrahydro-quinoline-6-carboxylic acid] | 1.78
CN1CCC(NC(=O)c2cccc(C3Nc4ccc(C(=O)O)cc4CC3(C)C)c2)C1 (stereo not shown) [Example 165, 3,3-dimethyl-2-(3-(1-methylpyrrolidin-3-ylcarbamoyl)phenyl)-1,2,3,4-tetrahydroquinoline-6-carboxylic acid] | 1.53
CC(C)S(=O)(=O)Nc1cccc(C2Nc3ccc(C(=O)O)cc3CC2(C)C)c1 (stereo not shown) [Example 166, 3,3-Dimethyl-2-(3-(1-methylethylsulfonamido)phenyl)-1,2,3,4-tetrahydroquinoline-6-carboxylic acid] | 1.43
CC1(C)Cc2cc(C(=O)O)ccc2NC1c1cccc(C(=O)NC2CCC2)c1 (stereo not shown) [Example 172, 2-(3-(Cyclobutylcarbamoyl)phenyl)-3,3-dimethyl-1,2,3,4-tetrahydroquinoline-6-carboxylic acid] | 1.34
CC1(C)Cc2cc(C(=O)O)ccc2NC1c1cccc(C(=O)NS(=O)(=O)C2CC2)c1 (stereo not shown) [Example 176, 2-(3-(Cyclopropylsulfonylcarbamoyl)-phenyl)-3,3-dimethyl-1,2,3,4-tetrahydroquinoline-6-carboxylic acid] | 1.44
CC1(C)Cc2cc(C(=O)O)ccc2NC1c1ccc(F)c(NC(=O)c2ccccn2)c1 (stereo not shown) [Example 180, 2-(4-Fluoro-3-(picolinamido)-phenyl)-3,3-dimethyl-1,2,3,4-tetrahydroquinoline-6-carboxylic acid] | 1.32
CC1(C)Cc2cc(C(=O)O)ccc2NC1c1ccc(NS(=O)(=O)c2ccc(F)cc2)cc1 (stereo not shown) [Example 181, 2-(4-(4-Fluorophenylsulfonamido)phenyl)-3,3-dimethyl-1,2,3,4-tetrahydroquinoline-6-carboxylic acid] | 1.31

The next lines start with the values.

E30 | Structure (SMILES)
1.22 | CC1(C)Cc2c(C(=O)NS(=O)(=O)C3CC3)ccc(F)c2NC1c1cccc(N2CCOCC2)c1 (stereo not shown) [Example 150, Cyclopropanesulfonic acid [8-fluoro-3,3-dimethyl-2-(3-morpholin-4-yl-phenyl)-1,2,3,4-tetrahydro-quinoline-5-carbonyl]-amide]
1.41 | Cc1ccccc1N1CCN(c2cccc(C3Nc4ccc(C(=O)O)cc4CC3(C)C)c2)CC1 (stereo not shown) [Example 152, 3,3-Dimethyl-2-[3-(4-o-tolyl-piperazin-1-yl)-phenyl]-1,2,3,4-tetrahydroquinoline-6-carboxylic acid]
1.27 | CC1(C)Cc2cc(C(=O)NS(=O)(=O)C3CC3)ccc2NC1c1cccc(N2CC(F)C2)c1 (stereo not shown) [Example 153, Cyclopropanesulfonic acid {2-[3-(3-fluoro-azetidin-1-yl)-phenyl]-3,3-dimethyl-1,2,3,4-tetrahydro-quinoline-6-carbonyl}-amide]
1.19 | Cc1ccccc1N1CCN(c2cccc(C3Nc4ccc(C(=O)NS(C)(=O)=O)cc4CC3(C)C)c2)CC1 (stereo not shown) [Example 155, N-{3,3-Dimethyl-2-[3-(4-o-tolyl-piperazin-1-yl)-phenyl]-1,2,3,4-tetrahydro-quinoline-6-carbonyl}-methanesulfonamide]
1.66 | CC(C)(C)c1ccc(-c2cccc(C3Nc4ccc(F)c(C(=O)NS(=O)(=O)C5CC5)c4CC3(C)C)c2)cc1 (stereo not shown) [Example 156, Cyclopropanesulfonic acid [2-(4′-tert-butyl-biphenyl-3-yl)-6-fluoro-3,3-dimethyl-1,2,3,4-tetrahydro-quinoline-5-carbonyl]-amide]
1.36 | CC(C)(C)c1ccc(-c2cccc(C3Nc4ccc(F)c(C(=O)NS(C)(=O)=O)c4CC3(C)C)c2)cc1 (stereo not shown) [Example 157, N-[2-(4′-tert-Butyl-biphenyl-3-yl)-6-fluoro-3,3-dimethyl-1,2,3,4-tetrahydro-quinoline-5-carbonyl]-methanesulfonamide]
1.34 | CC1(C)Cc2cc(C(=O)O)ccc2NC1c1ccccc1 (stereo not shown) [Example 158, 3,3-Dimethyl-2-phenyl-1,2,3,4-tetrahydro-quinoline-6-carboxylic acid]
1.21 | CC1(C)Cc2cc(C(=O)NS(=O)(=O)C3CC3)ccc2NC1c1cccc(-c2ccc(S(C)(=O)=O)cc2)c1 (stereo not shown) [Example 161, Cyclopropanesulfonic acid [2-(4′-methanesulfonyl-biphenyl-3-yl)-3,3-dimethyl-1,2,3,4-tetrahydro-quinoline-6-carbonyl]-amide]
1.2 | CC(C)(C)NC(=O)c1ccc(-c2cccc(C3Nc4ccc(C(=O)O)cc4CC3(C)C)c2)cc1 (stereo not shown) [Example 162, 2-(4′-tert-Butylcarbamoyl-biphenyl-3-yl)-3,3-dimethyl-1,2,3,4-tetrahydro-quinoline-6-carboxylic acid]
1.4 | CC1(C)Cc2cc(C(=O)O)ccc2NC1c1cccc(C(=O)NC2CCOC2)c1 (stereo not shown) [Example 167, 3,3-Dimethyl-2-(3-(tetrahydrofuran-3-ylcarbamoyl)phenyl)-1,2,3,4-tetrahydroquinoline-6-carboxylic acid]
1.39 | CC1(C)Cc2cc(C(=O)O)ccc2NC1c1ccc(NS(=O)(=O)c2ccccc2)cc1 (stereo not shown) [Example 168, 3,3-Dimethyl-2-(4-(phenylsulfonamido)phenyl)-1,2,3,4-tetrahydroquinoline-6-carboxylic acid]
1.38 | CC(=O)Nc1ccc(S(=O)(=O)Nc2cccc(C3Nc4ccc(C(=O)O)cc4CC3(C)C)c2)cc1 (stereo not shown) [Example 169, 2-(3-(4-Acetamidophenylsulfonamido)phenyl)-3,3-dimethyl-1,2,3,4-tetrahydroquinoline-6-carboxylic acid]
1.36 | CC1(C)Cc2cc(C(=O)O)ccc2NC1c1cccc(C(=O)NC2CC2)c1 (stereo not shown) [Example 170, 2-(3-(Cyclopropylcarbamoyl)phenyl)-3,3-dimethyl-1,2,3,4-tetrahydroquinoline-6-carboxylic acid]
1.36 | CC1(C)Cc2cc(C(=O)O)ccc2NC1c1cccc(C(=O)N2CCCC2)c1 (stereo not shown) [Example 171, 3,3-Dimethyl-2-(3-(pyrrolidine-1-carbonyl)phenyl)-1,2,3,4-tetrahydroquinoline-6-carboxylic acid]
1.24 | CC(C)NC(=O)c1cccc(C2Nc3ccc(C(=O)O)cc3CC2(C)C)c1 (stereo not shown) [Example 173, 2-(3-(Isopropylcarbamoyl)phenyl)-3,3-dimethyl-1,2,3,4-tetrahydroquinoline-6-carboxylic acid]
1.54 | CC(C)C(=O)Nc1cc(C2Nc3ccc(C(=O)O)cc3CC2(C)C)ccc1F (stereo not shown) [Example 174, 2-(4-Fluoro-3-isobutyramidophenyl)-3,3-dimethyl-1,2,3,4-tetrahydroquinoline-6-carboxylic acid]
1.5 | CC1(C)Cc2cc(C(=O)O)ccc2NC1c1cccc(C(=O)NS(=O)(=O)c2ccccc2)c1 (stereo not shown) [Example 175, 3,3-Dimethyl-2-(3-(phenylsulfonylcarbamoyl)phenyl)-1,2,3,4-tetrahydroquinoline-6-carboxylic acid]
1.4 | CC(C)C(=O)Nc1cc(C2Nc3ccc(C(=O)O)cc3CC2(C)C)ccc1Cl (stereo not shown) [Example 177, 2-(4-Chloro-3-isobutyramidophenyl)-3,3-dimethyl-1,2,3,4-tetrahydroquinoline-6-carboxylic acid]
1.36 | CC(C)C(=O)Nc1ccc(C2Nc3ccc(C(=O)O)cc3CC2(C)C)cc1 (stereo not shown) [Example 178, 2-(4-Isobutyramidophenyl)-3,3-dimethyl-1,2,3,4-tetrahydroquinoline-6-carboxylic acid]
1.33 | CC1(C)Cc2cc(C(=O)O)ccc2NC1c1cccc(C(=O)NS(C)(=O)=O)c1 (stereo not shown) [Example 179, 3,3-Dimethyl-2-(3-(methylsulfonylcarbamoyl)-phenyl)-1,2,3,4-tetrahydroquinoline-6-carboxylic acid]
